Measured values from patent publication US7943176B2, “Oral dosage form for propiverine or its pharmaceutically acceptable salts with an extended release of the active ingredient” (Apogepha Arzneimittel GmbH, priority 2001, dated 2011).
Where “and” joins values, the source holds several entries; their conditions need not be identical. Equal entries are not always repeated. Structures can show the parent of a compound that is named as a salt. Where two headings read alike, the source gives them in different places. One block for each compound: values may come before it.

Experiments:
[1] = water, pH=4.0-8.0; cited from earlier work
[2] = water, 25° C.; cited from earlier work
[3] = Distribution coefficient of propiverine-hydrochloride (1-octanol/water, 25° C.); type: physicochemical
Experimental: (§1) The distribution coefficient and the solubility of propiverine-hydrochloride in dependence of the pH value are known (determination of the amount of propiverine in the aqueous phase via HPLC).
Distribution coefficient of propiverine-hydrochloride (1-octanol/water, 25° C.)

[4] = Solubility of propiverine-hydrochloride in water; type: physicochemical; details: aqueous buffer
Excerpt: as §1
Solubility of propiverine-hydrochloride in water

Structure (SMILES): CCCOC(C(=O)OC1CC[N+](C)([O-])CC1)(c1ccccc1)c1ccccc1 (stereo not shown) [Propiverine-N-oxide, propiverine-N-oxide]
solubility [1]: > 127 mg/mL and > 99 mg/mL

Structure (SMILES): CCCOC(C(=O)OC1CCN(C)CC1)(c1ccccc1)c1ccccc1 [propiverine, 2,2-diphenyl-2-(1-propoxy)acetic acid(1-methyl-piperid-4-yl)ester]
pKa value [2]: 7.35±0.1

Log [K] ([3]; pH 1.0): 1.3
K (distribution coefficient) ([3]; pH 1.0, mean of three): 22
Log [K] ([3]; pH 5.0): 1.1
K (distribution coefficient) ([3]; pH 5.0, mean of three): 13
Log [K] ([3]; pH 6.0): 2.4
K (distribution coefficient) ([3]; pH 6.0, mean of three): 227
Log [K] ([3]; pH 6.5): 2.9
K (distribution coefficient) ([3]; pH 6.5, mean of three): 884
Log [K] ([3]; pH 6.8): 3.8
K (distribution coefficient) ([3]; pH 6.8, mean of three): 6904
Log [K] ([3]; pH 7.0): 4.0
K (distribution coefficient) ([3]; pH 7.0, mean of three): 10346
Log [K] ([3]; pH 7.2): 4.2
K (distribution coefficient) ([3]; pH 7.2, mean of three): 15438
Log [K] ([3]; pH 7.5): 4.4
K (distribution coefficient) ([3]; pH 7.5, mean of three): 26068
Log [K] ([3]; pH 8.0): 4.7
K (distribution coefficient) ([3]; pH 8.0, mean of three): 52372
solubility ([4]; pH 5.8, 24 ° C.): > 200 mg/mL
solubility ([4]; pH 5.8, 37 ° C.): 368 mg/mL
solubility ([4]; pH 6.0, 24 ° C.): 209 mg/mL
solubility ([4]; pH 7.0, 24 ° C.): 1.2 mg/mL
solubility ([4]; pH 7.2, 24 ° C.): 1.1 mg/mL
Structure (SMILES): CCCOC(C(=O)OC1CCN(C)CC1)(c1ccccc1)c1ccccc1 [propiverine-hydrochloride]
